The data set can be described thus: solubility and physical properties of the active principle. It is filed as physicochemical.

As for `ClC[Si]12OCCN(CCO1)CCO2` [1-(chloromethyl)silatrane], the solubility in alcohol result (alcohol) is reported as “difficultly soluble”. Moreover, for the setting “chloroform”, the solubility in chloroform result is “readily soluble”. Further, where the note is “dry state”, the sterilizability entry was “sterilizable in a dry state”. For the setting “ether”, the solubility in ether result was “insoluble”. Also, for the setting “water”, the solubility in water entry is “poorly soluble”. In addition, where the note is “white crystalline powder”, the hygroscopicity entry is “non-hygroscopic”.

These data come from patent publication US4055637A, “Medicinal preparation for healing wounds and treating dermatites using 1-(chloromethyl)silatrane” (priority 1975, dated 1977).
